Measurements as given in US4581453A, “Guanidinothiazole derivatives containing alkylene bridges, and their use for influencing lipid metabolism” (Bayer Aktiengesellschaft, priority 1982, dated 1986).
Values after ≈ are worked out from the molar mass of the structure shown. Where a name gives a salt, the structure may show the parent alone.

Columns and labels:
[1] = tested on: Aspergillus fumigatus; assay: Antimycetic in vitro activity, series dilution test; format: cell-based; settings: Sabourands' milieu d'epreuve, 96 hours, 20° C.; for MIC: read-out: Minimum inhibitory concentration
Experimental: (§1) The in vitro tests were carried out in a series dilution test using germ inocula of on average 5×10^4 germs/ml of substrate. The nutrient medium used was
(§2) (a) Sabourands' milieu d'epreuve for dermatophytes and moulds; and
(§3) (b) meat extract/dextrose broth for yeasts.
(§4) The incubation temperature was 20° C. and the incubation time was 24 to 96 hours for yeasts and 96 hours for dermatophytes and moulds.

[2] = tested on: Microsporum canis; assay: as above; format: cell-based; settings: Sabourands' milieu d'epreuve, 96 hours, 20° C.; for MIC: read-out: Minimum inhibitory concentration
Experimental: as §1, §2, §3, §4

[3] = tested on: Candida albicans; assay: as above; format: cell-based; settings: meat extract/dextrose broth, 24 to 96 hours, 20° C.; for MIC: read-out: Minimum inhibitory concentration
Experimental: as §1, §2, §3, §4

[4] = tested on: Torulopsis glabrata; assay: as above; format: cell-based; settings: meat extract/dextrose broth, 24 to 96 hours, 20° C.; for MIC: Nakaseomyces glabratus, read-out: Minimum inhibitory concentration
Experimental: as §1, §2, §3, §4

[5] = tested on: Trichophyton mentagrophytes; assay: as above; format: cell-based; settings: Sabourands' milieu d'epreuve, 96 hours, 20° C.; for MIC: read-out: Minimum inhibitory concentration
Experimental: as §1, §2, §3, §4

[6] = tested on: proliferation of the intima (arteria carotis comm.); settings: rat; heparin following parenteral administration; cited from earlier work
[7] = tested on: liver cholesterol; assay: Cholesterol loading test; format: in vivo, Wistar rats; settings: rat, 24 hours
Experimental: Cholesterol loading tests were carried out on conscious male or female Wistar rats weighing between 130-230 g.
Cholesterol and the substance to be tested were simultaneously administered orally in 0.75% strength tragacanth suspension. After 24 hours, the animals were sacrificed and the cholesterol content of the liver was determined. Cholesterol was determined by the Liebermann-Burchard method using the test combination of Boehringer Mannheim. Control animals received a corresponding volume of cholesterol/tragacanth suspension without the test substance. To monitor the rise in cholesterol as a result of cholesterol loading, tragacanth suspension containing no cholesterol was administered orally to another control group.

[8] = tested on: platelet aggregation in rat PRP; assay: Platelet aggregation-inhibiting action (PAH) ex vivo, thromboatherosclerosis experiment; format: in vivo; settings: po, 1.5 h, read-out: PAH ex vivo: Activity, ED50 (dose/concentration range)
Experimental: The change in optical density of the sample of PRP was recorded over a period of 6 minutes and was determined via the reading after 6 minutes. The percentage inhibition is calculated from the corresponding readings. Moreover, the platelet aggregation was also determined in the context of the thromboatherosclerosis experiment. In carrying out these experiments, the active substance was administered to the animals orally in a Tylose suspension over a period of 10 days. On the 10th day, the animals were exsanguinated 90 minutes after the oral administration of the substance, and the PRP was isolated by means of centrifugation. After the PRP has been isolated, in vitro measurement of the aggregation inhibition starts, analogously to the process which has been described for the in vitro experiments; but without pre-incubation of the samples. 3 parts of rat PRP were also diluted with one part of physiological saline solution.
Atherosclerotic plaques are induced in rats by combination of two noxae (risk factors), that is to say vascular lesion and hyperlipaemia. By supercooling of the arteria carotis comm. (2 minutes, -10° C.), partial or complete endothelial scaling occurs in a locally restricted area. Proliferation of the intima occurs within 10 days, which is a relatively short period for such experiments, and largely corresponds to the early stages of atherosclerotic plaques in humans. The proliferation zones are removed and weighed. The moist weight in the supercooled segment of 1 cm is about 200-300 μg. The animals are additionally given a high-fat diet having the following composition: […]

[9] = tested on: proliferation of the intima (arteria carotis comm.); assay: Anti-atherosclerotic action, thromboatherosclerosis model; format: in vivo; settings: po; rat, per orally; read-out: anti-atherosclerotic: Activity, ED50 (dose/concentration range)
Experimental: Because of some fluid transitions between atherosclerosis and thrombosis, we have called the method used "thromboatherosclerosis model".
Folia angiologica 28, 85 (1980).
Atherosclerotic plaques are induced in rats by combination of two noxae (risk factors), that is to say vascular lesion and hyperlipaemia. By supercooling of the arteria carotis comm. (2 minutes, -10° C.), partial or complete endothelial scaling occurs in a locally restricted area. Proliferation of the intima occurs within 10 days, which is a relatively short period for such experiments, and largely corresponds to the early stages of atherosclerotic plaques in humans. The proliferation zones are removed and weighed. The moist weight in the supercooled segment of 1 cm is about 200-300 μg. The animals are additionally given a high-fat diet having the following composition:
52% of normal feed (Altromin®).
The lipid deposits are stained with the fat-soluble dyestuff Sudan IV and can be determined as an additional parameter.

[10] = target: T1, Cyclooxygenase (Homo sapiens, UniProt P23219); assay: Arachidonic acid metabolism in platelets: cyclooxygenase inhibition; format: cell-based; settings: 3H-arachidonic acid, read-out: Cyclooxygenase inhibition: Activity, ED50 (dose/concentration range) (converted)
T1 construct: endogenous in cells; host or cells: human platelets
T1 sequence (P23219 24-599): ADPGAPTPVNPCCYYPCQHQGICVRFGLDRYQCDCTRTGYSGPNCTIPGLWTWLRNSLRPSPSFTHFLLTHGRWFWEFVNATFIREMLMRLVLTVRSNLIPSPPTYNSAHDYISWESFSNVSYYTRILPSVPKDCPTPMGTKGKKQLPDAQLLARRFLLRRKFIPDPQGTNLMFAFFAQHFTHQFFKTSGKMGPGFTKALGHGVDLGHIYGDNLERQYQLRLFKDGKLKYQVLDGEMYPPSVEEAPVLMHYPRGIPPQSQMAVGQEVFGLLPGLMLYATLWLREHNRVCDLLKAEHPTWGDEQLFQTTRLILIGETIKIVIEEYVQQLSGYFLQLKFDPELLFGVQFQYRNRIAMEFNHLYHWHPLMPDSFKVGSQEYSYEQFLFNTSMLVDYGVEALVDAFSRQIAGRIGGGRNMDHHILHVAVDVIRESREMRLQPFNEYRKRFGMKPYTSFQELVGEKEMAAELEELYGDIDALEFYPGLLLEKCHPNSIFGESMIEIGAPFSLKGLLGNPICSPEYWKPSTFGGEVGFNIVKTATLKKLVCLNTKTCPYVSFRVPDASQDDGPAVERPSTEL
From the text: In human platelets, ^3 H-arachidonic acid is converted into the products of the cyclooxygenase/thromboxane synthetase path, in particular thromboxane A2, and those of the lipoxygenase path, HETE. Separation of the resulting products by thin layer chromatography gives a characteristic pattern. Inhibitors of the individual enzymatic reactions modify this pattern in a typical manner (Bailey, J. M. et al., Prostaglandins 13, 479-492 (1977)). The action of the compounds according to the invention on individual reactions in arachidonic acid metabolism are shown in Table 2.

Row | Molecule | MIC [1] [µg/mL] | MIC [2] [µg/mL] | MIC [3] [µg/mL] | MIC [4] [µg/mL] | MIC [5] [µg/mL] | also measured
1 | c1ccc(-c2csc(N=C3NCCCN3)n2)cc1 [Example 22] | < 1 | < 1 | 4 (≈ 15.5 µM) | 32 (≈ 124 µM) | < 1 | –
2 | heparin | – | – | – | – | – | effectiveness in thromboatherosclerosis model (in words), prior agents [6]: effective
3 | Cc1nc(N=C2NCCCN2)sc1C(=O)Nc1ccc(Cl)cc1 [Example 17] | – | – | – | – | – | Reduction in the increase in liver cholesterol in percent in comparison with the control, following oral cholesterol loading ([7]; 100 mg/kg per orally): 56.1%; ED50 [8]: 100 mg/kg
4 | O=C(O)c1cccnc1 [nicotinic acid] | – | – | – | – | – | effectiveness in thromboatherosclerosis model (in words), prior agents [6]: ineffective
5 | c1cc2c(cc1-c1csc(N=C3NCCCN3)n1)CCCC2 [Example 25] | – | – | – | – | – | Reduction in the increase in liver cholesterol in percent in comparison with the control, following oral cholesterol loading ([7]; 10 mg/kg per orally): 65.3%; Reduction in the increase in liver cholesterol in percent in comparison with the control, following oral cholesterol loading ([7]; 30 mg/kg per orally): 78.1%; ED50 [8]: 100 mg/kg
6 | Cc1cc(Cl)ccc1-c1csc(N=C2NCCCN2)n1 [Example 33, 2-(N-(4'-(4"-Chloro-2"-methylphenyl)-thiazol-2'-yl)imino)-hexahydropyrimidine hydrochloride] | 2 | 2 | 2 | 16 | 2 | –
7 | neomycin | – | – | – | – | – | effectiveness in thromboatherosclerosis model (in words), prior agents [6]: ineffective
8 | Clc1ccc(C2(Cn3ccnc3)OCC(COc3ccc(-c4ccccc4)cc3)O2)c(Cl)c1 (centres unmarked) [Doconazol, doconazol, reference compound] | – | – | – | – | – | Minimum inhibitory concentration [1]: 4 µg/mL (≈ 8.31 µM); Minimum inhibitory concentration [2]: 8 µg/mL (≈ 16.6 µM); Minimum inhibitory concentration [3]: < 1 µg/mL; Minimum inhibitory concentration [4]: < 1 µg/mL; Minimum inhibitory concentration [5]: < 1 µg/mL
9 | CN1CCCNC1=Nc1nc(-c2ccccc2)cs1 [Example 49] | – | – | – | – | – | ED50 [8]: 100 mg/kg; ED50 [9]: 100 mg/kg; IC50 [10]: 36.7 µM
10 | Clc1ccc(-c2csc(N=C3NCCCN3)n2)c(Cl)c1 [Example 27] | 8 (≈ 24.4 µM) | < 1 | < 1 | 16 (≈ 48.9 µM) | < 1 | –
11 | CC(=O)N1CCN(c2ccc(OCC3COC(Cn4ccnc4)(c4ccc(Cl)cc4Cl)O3)cc2)CC1 (centres unmarked) [Ketoconazol, ketoconazol, reference compound] | 16 (≈ 30.1 µM) | 4 (≈ 7.53 µM) | < 1 | 1 (≈ 1.88 µM) | < 1 | –
12 | c1ccc2c(-c3csc(N=C4NCCCN4)n3)cccc2c1 [Example 24] | < 1 | < 1 | 2 (≈ 6.48 µM) | 8 (≈ 25.9 µM) | < 1 | –
